Test results published in ChEMBL document CHEMBL1811893, “Seco-eremophiladiolides and eremophilane glucosides from Pittocaulon velatum” (J Nat Prod, 2011).
Activity calls are given as the source filed them. No cut-off for these calls is given here.

Test system: Rattus norvegicus
Assay: Antiinflammatory activity in Lewis rat assessed as inhibition of TPA-induced ear edema
Type: functional, organism-based

Row | SMILES | Activity
1 | C/C(=C\O[C@@H]1O[C@H](CO)[C@@H](O)[C@H](O)[C@H]1O)[C@@H]1C[C@@]2(C)C(=CC1=O)[C@H](O)CC[C@@H]2C | inactive
2 | C/C(=C\O[C@@H]1O[C@H](CO)[C@@H](O)[C@H](O)[C@H]1O)[C@@H]1C[C@@]2(C)C(=CC1=O)CCC[C@@H]2C | inactive
3 | Cc1coc2c1[C@@H](OCC(C)C)[C@]1(C)[C@@H](C)CC[C@H]3O[C@]31C2=O | inactive
4 | C/C(=C\O[C@@H]1O[C@H](CO)[C@@H](O)[C@H](O)[C@H]1O)[C@@H]1C[C@@]2(C)C(=CC1=O)CC[C@@H](O)[C@@H]2C | inactive
5 | C/C(=C\O[C@@H]1O[C@H](CO)[C@@H](O)[C@H](O)[C@H]1O)[C@@H]1C[C@@]2(C)C(=CC1=O)CC[C@H](O)[C@@H]2C | inactive
6 | CC1=C([C@H]2OC(=O)[C@@H]3CCC[C@H](C)[C@@]23C)C(=O)OC1 | inactive
7 | CC1=C([C@@H]2OC(=O)[C@@H]3CCC[C@H](C)[C@]32C)C(=O)OC1 | inactive
8 | Cc1coc2c1[C@@H](OCC(C)C)[C@]1(C)[C@@H](C)CCC[C@H]1C2=O | inactive
9 | C[C@H]1C[C@@H](O)C[C@H]2C(=O)c3occ(CO)c3[C@@H](O)[C@]12C | inactive
